Columns and labels:
Type in all cases: cell-based, human
A549 cells = experiment: Clonogenic assay in A549 cells; conditions: Homo sapiens, 168 h, seven days treatment, read-out: IC50 to inhibit growth (survival fraction)
Description: Further, clonogenic assay is considered as the gold standard method for evaluating the anticancer activity of any compound and is also a good indicator of the in vivo efficacy of any anticancer compound. Therefore, the therapeutic index of DSePA and D-DSePA in A549/WI-38 cells was also validated by employing the clonogenic assay. For this, A549/WI-38 cells were treated with the varying concentrations (0.1-2 μM)/(1-500 μM) of DSePA/D-DSePA for seven days and the survival fraction was calculated by counting the number of surviving clones (FIG. 11A). The plot of survival fraction verses the concentration of DScPA/D-DSCPA was used to estimate the IC50 of above compounds to inhibit the growth of A549/WI-38 cells. […] This clearly confirmed that deuteration of DScPA reduced its toxicity in normal cells without compromising its efficacy in cancer cells. […]
Clonogenic assay—Clonogenic assay was performed according to the method reported previously. […] After 7 days, colonies were fixed with absolute methanol for 5 min, stained with 0.5% crystal violet for 5 min, washed with distilled water to remove excess stain and counted manually under a stereo microscope. […] The plating efficiency and the survival fraction under irradiated and drug treated conditions were calculated using following formulae: […]
The plating efficiency of A549 and WI38 cells was calculated by seeding ˜300 and ˜500 cells respectively. […]

H3122 cells = experiment: MTT assay, anti-proliferative effect in H3122 cells; conditions: Homo sapiens, NCI-H3122, 48 h treatment, read-out: IC50 to inhibit cell proliferation
Description: (§1) Therefore, D-DSePA was compared with un-deuterated DSePA for its anticancer activity in A549, H1975 and H3122 cell lines which are representative of NSCLC. For this, above cells were treated with the varying concentrations (0.1-100 μM) of DSePA/D-DSePA for 48 h and the cell viability was determined by MTT assay (FIG. 9A-C). The plot of percent (%) cytotoxicity (100-% viability) versus the concentration of DSePA/D-DSePA was used to estimate the half maximum concentration (IC50) of above compounds to inhibit the proliferation of cells. […] Employing these values, the therapeutic index (IC50 in normal lung cell/IC50 in lung cancer cell) of DSePA and D-DSePA in different pairs of normal versus cancerous cells (viz., A549/WI-38, A549/WI-26 VA4, H1975/WI-38, H1975/WI-26 VA4, H3122/WI-38 and H3122/WI-26 VA4) was calculated (Table-3). […]
(§2) MTT Assay—To evaluate the anti-proliferative effect of D-DScPA and DScPA, Cells (˜5×10^3) suspended in 100 μl of complete culture medium were seeded in each well of 96 well plates. […] The percentage (%) cytotoxicity was calculated from the decrease in absorbance at 570 nm of treated groups as compared to that of control group. […] The therapeutic index was calculated by normalizing the IC50 concentration of D-DSePA/DSePA in non-cancerous cells to that in cancerous cells.

H1975 cells = experiment: MTT assay, anti-proliferative effect in H1975 cells; conditions: Homo sapiens, NCI-H1975, 48 h treatment, read-out: IC50 to inhibit cell proliferation
Description: as §1, §2

How did the IC50 (A549 cells) turn out when `O=C(O)CC[Se][Se]CCC(=O)O` [DSePA, 3,3′-diselenodipropionic acid] was run?
Its IC50 is 1.2 ± 0.01 µM.

And the IC50 (H3122 cells)?
The IC50 was 21.5 ± 1.2 µM.

What about the IC50 (H1975 cells) of the same molecule?
The IC50 was 10.6 ± 1.1 µM.

Reference: patent US20240208901A1, “Deuterated 3,3'-Diselenodipropionic Acid (DSePA) and Its Use as an Anticancer or Radioprotective Agent” (Secretary, Department of Atomic Energy, priority 2022, published 2024)
